Source: patent US4952605A (priority 1988, dated 1990)

Tests used:
[1] = test system: PMA-induced ear edema (inflammation) in mice; assay: Mouse ear anti-inflammatory assay (PMA-induced edema); type: in vivo; conditions: for relative increase in ear weight: statistically significant difference
Description: Test compound and phorbol myristate acetate (PMA) are topically applied simultaneously to the pinnae of the left ears of mice. PMA alone is applied to the right ear. Three hours and 20 minutes after application, the mice are sacrificed, left and right ears removed, and standard sized bores taken. Edema (inflammation) is measured as the difference in weight between left and right ears (C. G. Van Arman, Clin Pharmacol Ther (1974) 16:900-904).
The results of separate, similar experiments are set forth below (*=statistically significant difference).
In another separate experiment, the effect of dehydro-seco-manoalide was determined (PMA=15 μg/ear).
In separate, similar experiments, where […] was at 1.5 ug/ear, luffariellin A and B (50 ug/ear) gave statistically significant differences in relative increase in ear weight (0.308±0.065 and 0.262±0.053, respectively) as compared to PNA alone (0.618± 0.113); as did 50 ug luffariellolide (0.221±0.068) as compared to PMA alone (0.929±0.200).

[2] = target: bee venom phospholipase A2 (PLA2) (Apis mellifera, UniProt P00630); assay: biochemical; conditions: for inhibition at 0.75 µM: pH 7.4, read-out: Percent Inhibition of PLA2; for inhibition at 0.25 µM / inhibition at 0.5 µM / inhibition at 2 µM / inhibition at 4 µM: pH 7.4, read-out: Percent Inhibition of PLA2; for inhibition at 0.5 µM: 0.50 uM
Sequence of bee venom phospholipase A2 (PLA2) (P00630 34-167 limits assumed): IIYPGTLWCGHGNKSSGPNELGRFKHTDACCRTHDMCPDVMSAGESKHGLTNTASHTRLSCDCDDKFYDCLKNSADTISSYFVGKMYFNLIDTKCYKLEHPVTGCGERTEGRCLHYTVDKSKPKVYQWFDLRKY

[3] = target: bee venom PLA2 (Apis mellifera, UniProt P00630); assay: biochemical; conditions: pH 7.4
Sequence of bee venom PLA2 (P00630 34-167 limits assumed): as above

[4] = test system: Chinese hamster ovary K1 cells; assay: Effect on CHO cell growth; type: cell-based; conditions: Cricetulus griseus
Description: Chinese hamster ovary K1 cells are maintained in Dulbecco's Modified Eagle's Medium at 36° C. with 95% air and 5% CO2. Cells are transferred into 35 mm culture dishes, allowed 24 hours to adhere, then exposed to medium containing drug for the duration of the experiment. The number of adhered cells is counted at 24, 48, and 72 hours after initial exposure to drug.

[5] = 50 ug/ear, PNA [sic] 1.5 ug/ear, PNA alone 0.618±0.113
[6] = dose 25.0 ug/ear topical, PMA 1.5 ug/ear, untreated 9.3 mg, PMA alone 23 mg, *=statistically significant
[7] = dose 50.0 ug/ear topical, PMA 1.5 ug/ear, untreated 9.3 mg, PMA alone 23 mg, *=statistically significant

In the case of `C=C(C)C1(CCC(C)=CCCC(C=O)=CCC(O)C2=CC(=O)OC2O)CCCC1C` (stereo not shown) [luffariellin B], the “relative increase in ear weight” value [1, 5] is reported as 0.262±0.053.

In the case of `C=C(C)C1(CCC(C)=CCCC2=CCC(C3=CC(=O)OC3O)OC2O)CCCC1C` (stereo not shown) [luffariellin A], the “relative increase in ear weight” value [1, 5] is reported as 0.308±0.065.

`CC(=CCCC(=CCC(O)C1=CC(=O)OC1)CO)CCC1=C(C)CCCC1(C)C` (stereo not shown) [Manoalide Diol, 3,7-Bis(hydroxymethyl)-4-hydroxy-11-methyl-13-(2,6,6-trimethylcyclohexenyl)-2,6,10-tridecatrienoic acid gamma-lactone] was tested, and the “Average Ear Weight” value [1, 6] was 14.54 mg/ear and the “Average Ear Weight” value [1, 7] was 13.17 mg/ear.

With `CC(=O)OC1OC(=O)C=C1C1CC=C(CCC=C(C)CCC2=C(C)CCCC2(C)C)C(=O)O1` (stereo not shown) [Manoalide delta Lactone Acetate, manoalide delta-lactone acetate] the “Average Ear Weight” value [1, 6] was 16.64 mg/ear and the “Average Ear Weight” value [1, 7] was 13.34 mg/ear.

In the case of `CC(=CCCC(C=O)=CC=CC1=CC(=O)OC1O)CCC1=C(C)CCCC1(C)C` (stereo not shown) [Dehydro-seco-manoalide], the “relative potency of dehydro-seco-manoalide to manoalide” value ([1]; from dose/response data, relative to manoalide) is reported as 1.32, the “Average Ear Weight” value ([1]; separate experiment, dose 50 ug/ear, PMA=15 μg/ear, no agent 24.60 mg/ear) is reported as 14.30 mg/ear and the inhibition at 0.75 µM [2] is reported as 51.3%. For the same compound, the inhibition at 0.25 µM [2] was 30.3%, the inhibition at 0.5 µM [2] was 61.8% and the inhibition at 2 µM [2] was 72.4%. For the same compound, the inhibition at 4 µM [2] was 87.3%.

`CC(=CCCC1=CCC(C2=CC(=O)OC2O)OC1=O)CCC1=C(C)CCCC1(C)C` (stereo not shown) [Manoalide delta Lactone, manoalide delta-lactone] was tested, and the “Average Ear Weight” value [1, 6] was 16.28 mg/ear and the “Average Ear Weight” value [1, 7] was 14.87 mg/ear.

In the case of `CC(=CCCC1=CCC(C2=CC(=O)OC2O)OC1O)CCC1=C(C)CCCC1(C)C` (stereo not shown) [Manoalide, reference compound], the “Average Ear Weight” value ([1]; dose 7.5 ug/ear topical, PMA 1.5 ug/ear, untreated 9.3 mg, PMA alone 23 mg, *=statistically significant) is reported as 20.45 mg/ear, the “Average Ear Weight” value ([1]; dose 10.0 ug/ear topical, PMA 1.5 ug/ear, untreated 9.3 mg, PMA alone 23 mg, *=statistically significant) is reported as 19.75 mg/ear and the “Average Ear Weight” value ([1]; dose 20.0 ug/ear topical, PMA 1.5 ug/ear, untreated 9.3 mg, PMA alone 23 mg, *=statistically significant) is reported as 17.00 mg/ear. For the same compound, the “Average Ear Weight” value ([1]; dose 40.0 ug/ear topical, PMA 1.5 ug/ear, untreated 9.3 mg, PMA alone 23 mg, *=statistically significant) was 16.80 mg/ear, the “Average Ear Weight” value ([1]; dose 80.0 ug/ear topical, PMA 1.5 ug/ear, untreated 9.3 mg, PMA alone 23 mg, *=statistically significant) was 12.90 mg/ear and the “Average Ear Weight” value ([1]; dose 160.0 ug/ear topical, PMA 1.5 ug/ear, untreated 9.3 mg, PMA alone 23 mg, *=statistically significant) was 12.60 mg/ear. For the same compound, the “Average Ear Weight” value ([1]; dose 320.0 ug/ear topical, PMA 1.5 ug/ear, untreated 9.3 mg, PMA alone 23 mg, *=statistically significant) was 11.20 mg/ear, the inhibition at 0.75 µM [2] was 73.5% and the inhibition at 0.25 µM [2] was 20.7%. For the same compound, the inhibition at 0.5 µM [2] was 48%, the inhibition at 2 µM [2] was 92.8% and the inhibition at 4 µM [2] was 94.5%.

`CC(=CCCC1=CC(=O)OC1O)CCC=C(C)CCC1=C(C)CCCC1(C)C` (stereo not shown) [luffariellolide, 3-(4,8-dimethyl-10-(2,6,6-trimethylcyclohexenyl)-deca,7-dienyl)-4-hydroxybutenolide] gave an inhibition at 0.25 µM ([3]; 0.25 uM) of 59%, an inhibition at 0.5 µM ([3]; 0.5 uM) of 59.7% and an inhibition at 1 µM ([3]; 1.0 uM) of 62.6%. The “relative increase in ear weight” value ([1]; 50 ug, PMA alone 0.929±0.200) was 0.221±0.068, the inhibition at 42 µM ([4]; 24 hours) was 63% and the inhibition at 42 µM ([4]; 48 hours) was 74%. It also gave an inhibition at 42 µM ([4]; 72 hours) of 71%.
